Experimental data: ChEMBL document CHEMBL5352486, “Design, synthesis, in vitro - In vivo biological evaluation of novel thiazolopyrimidine compounds as antileishmanial agent with PTR1 inhibition” (Eur J Med Chem, 2023)
Activity calls are given as the source filed them. The rule behind the calls is not given here.

Experiments:
Settings in all cases: time 21.0 day
Leishmania infantum [1] = assay: Antileishmanial activity against Leishmania infantum infected in BALB/c mouse model of cutaneous leishmaniasis assessed as footpad lesion development at 50 mg/kg/day, ID administered for 21 days and measured after 8 weeks by Giemsa staining based analysis (reference value: 3.13 +/- 0.03); type: functional
Leishmania infantum [2] = assay: Antileishmanial activity against Leishmania infantum infected in BALB/c mouse model of cutaneous leishmaniasis assessed as parasite growth in liver at 50 mg/kg/day, ID administered for 21 days; type: functional, organism-based
Leishmania infantum [3] = assay: Antileishmanial activity against Leishmania infantum infected in BALB/c mouse model of cutaneous leishmaniasis assessed as footpad lesion development at 50 mg/kg/day, ID administered for 21 days and measured after 16 weeks by Giemsa staining based analysis (reference value: 4.20 +/- 0.03); type: functional
Leishmania infantum [4] = assay: Antileishmanial activity against Leishmania infantum infected in BALB/c mouse model of visceral leishmaniasis assessed as footpad lesion development at 50 mg/kg/day, IM administered for 21 days and measured after 6 weeks by Giemsa staining based analysis (reference value: 25.81 +/- 0.84); type: functional
Leishmania infantum [5] = assay: Antileishmanial activity against Leishmania infantum infected in BALB/c mouse model of cutaneous leishmaniasis assessed as footpad lesion development at 50 mg/kg/day, ID administered for 21 days and measured after 30 weeks by Giemsa staining based analysis (reference value: 4.92 +/- 0.01); type: functional
Leishmania infantum [6] = assay: Antileishmanial activity against Leishmania infantum infected in BALB/c mouse model of visceral leishmaniasis assessed as footpad lesion development at 50 mg/kg/day, IM administered for 21 days and measured after 8 weeks by Giemsa staining based analysis (reference value: 23.84 +/- 0.93); type: functional
Leishmania infantum [7] = assay: Antileishmanial activity against Leishmania infantum infected in BALB/c mouse model of visceral leishmaniasis assessed as footpad lesion development at 50 mg/kg/day, IM administered for 21 days and measured after 3 weeks by Giemsa staining based analysis (reference value: 28.94 +/- 0.59); type: functional
Leishmania infantum [8] = assay: Antileishmanial activity against Leishmania infantum infected in BALB/c mouse model of cutaneous leishmaniasis assessed as footpad lesion development at 50 mg/kg/day, ID administered for 21 days and measured after 26 weeks by Giemsa staining based analysis (reference value: 4.91 +/- 0.01); type: functional
Leishmania infantum [9] = assay: Antileishmanial activity against Leishmania infantum infected in BALB/c mouse model of cutaneous leishmaniasis assessed as parasite growth in spleen at 50 mg/kg/day, ID administered for 21 days; type: functional, organism-based
Leishmania infantum [10] = assay: Antileishmanial activity against Leishmania infantum infected in BALB/c mouse model of cutaneous leishmaniasis assessed as footpad lesion development at 50 mg/kg/day, ID administered for 21 days and measured after 14 weeks by Giemsa staining based analysis (reference value: 3.88 +/- 0.03); type: functional
Leishmania infantum [11] = assay: Antileishmanial activity against Leishmania infantum infected in BALB/c mouse model of visceral leishmaniasis assessed as footpad lesion development at 50 mg/kg/day, IM administered for 21 days and measured after 4 weeks by Giemsa staining based analysis (reference value: 28.01 +/- 0.65); type: functional
Leishmania infantum [12] = assay: Antileishmanial activity against Leishmania infantum infected in BALB/c mouse model of cutaneous leishmaniasis assessed as footpad lesion development at 50 mg/kg/day, ID administered for 21 days and measured after 22 weeks by Giemsa staining based analysis (reference value: 4.71 +/- 0.04); type: functional
Leishmania infantum [13] = assay: Antileishmanial activity against Leishmania infantum infected in BALB/c mouse model of cutaneous leishmaniasis assessed as footpad lesion development at 50 mg/kg/day, ID administered for 21 days and measured after 24 weeks by Giemsa staining based analysis (reference value: 4.90 +/- 0.02); type: functional
Leishmania infantum [14] = assay: Antileishmanial activity against Leishmania infantum infected in BALB/c mouse model of cutaneous leishmaniasis assessed as footpad lesion development at 50 mg/kg/day, ID administered for 21 days and measured after 4 weeks by Giemsa staining based analysis (reference value: 1.90 +/- 0.03); type: functional
Leishmania infantum [15] = assay: Antileishmanial activity against Leishmania infantum infected in BALB/c mouse model of visceral leishmaniasis assessed as footpad lesion development at 50 mg/kg/day, IM administered for 21 days and measured after 11 weeks by Giemsa staining based analysis (reference value: 20.71 +/- 0.48); type: functional
Leishmania infantum [16] = assay: Antileishmanial activity against Leishmania infantum infected in BALB/c mouse model of cutaneous leishmaniasis assessed as footpad lesion development at 50 mg/kg/day, ID administered for 21 days and measured after 10 weeks by Giemsa staining based analysis (reference value: 3.40 +/- 0.03); type: functional
Leishmania infantum [17] = assay: Antileishmanial activity against Leishmania infantum infected in BALB/c mouse model of cutaneous leishmaniasis assessed as footpad lesion development at 50 mg/kg/day, ID administered for 21 days and measured after 20 weeks by Giemsa staining based analysis (reference value: 4.54 +/- 0.04); type: functional
Leishmania infantum [18] = assay: Antileishmanial activity against Leishmania infantum infected in BALB/c mouse model of cutaneous leishmaniasis assessed as footpad lesion development at 50 mg/kg/day, ID administered for 21 days and measured after 28 weeks by Giemsa staining based analysis (reference value: 4.92 +/- 0.01); type: functional
Leishmania infantum [19] = assay: Antileishmanial activity against Leishmania infantum infected in BALB/c mouse model of cutaneous leishmaniasis assessed as footpad lesion development at 50 mg/kg/day, ID administered for 21 days and measured after 32 weeks by Giemsa staining based analysis (reference value: 4.91 +/- 0.01); type: functional
Leishmania infantum [20] = assay: Antileishmanial activity against Leishmania infantum infected in BALB/c mouse model of visceral leishmaniasis assessed as parasite growth in liver at 50 mg/kg/day, IM administered for 21 days; type: functional, organism-based
Leishmania infantum [21] = assay: Antileishmanial activity against Leishmania infantum infected in BALB/c mouse model of cutaneous leishmaniasis assessed as footpad lesion development at 50 mg/kg/day, ID administered for 21 days and measured after 12 weeks by Giemsa staining based analysis (reference value: 3.61 +/- 0.03); type: functional
Leishmania infantum [22] = assay: Antileishmanial activity against Leishmania infantum infected in BALB/c mouse model of visceral leishmaniasis assessed as footpad lesion development at 50 mg/kg/day, IM administered for 21 days and measured after 5 weeks by Giemsa staining based analysis (reference value: 27.04 +/- 0.65); type: functional
Leishmania infantum [23] = assay: Antileishmanial activity against Leishmania infantum infected in BALB/c mouse model of visceral leishmaniasis assessed as footpad lesion development at 50 mg/kg/day, IM administered for 21 days and measured after 9 weeks by Giemsa staining based analysis (reference value: 22.75 +/- 0.71); type: functional
Leishmania infantum [24] = assay: Antileishmanial activity against Leishmania infantum infected in BALB/c mouse model of visceral leishmaniasis assessed as footpad lesion development at 50 mg/kg/day, IM administered for 21 days and measured after 10 weeks by Giemsa staining based analysis (reference value: 21.58 +/- 0.74); type: functional
Leishmania infantum [25] = assay: Antileishmanial activity against Leishmania infantum infected in BALB/c mouse model of visceral leishmaniasis assessed as footpad lesion development at 50 mg/kg/day, IM administered for 21 days and measured after 7 weeks by Giemsa staining based analysis (reference value: 24.85 +/- 0.88); type: functional
Leishmania infantum [26] = assay: Antileishmanial activity against Leishmania infantum infected in BALB/c mouse model of cutaneous leishmaniasis assessed as footpad lesion development at 50 mg/kg/day, ID administered for 21 days and measured after 2 weeks by Giemsa staining based analysis (reference value: 1.61 +/- 0.03); type: functional
Leishmania infantum [27] = assay: Antileishmanial activity against Leishmania infantum infected in BALB/c mouse model of cutaneous leishmaniasis assessed as parasite growth in foodpad at 50 mg/kg/day, ID administered for 21 days; type: functional, organism-based
Leishmania infantum [28] = assay: Antileishmanial activity against Leishmania infantum infected in BALB/c mouse model of visceral leishmaniasis assessed as parasite growth in spleen at 50 mg/kg/day, IM administered for 21 days; type: functional, organism-based
Leishmania infantum [29] = assay: Antileishmanial activity against Leishmania infantum infected in BALB/c mouse model of visceral leishmaniasis assessed as footpad lesion development at 50 mg/kg/day, IM administered for 21 days and measured after 1 week by Giemsa staining based analysis (reference value: 30.43 +/- 0.60); type: functional
Leishmania infantum [30] = assay: Antileishmanial activity against Leishmania infantum infected in BALB/c mouse model of cutaneous leishmaniasis assessed as footpad lesion development at 50 mg/kg/day, ID administered for 21 days and measured after 6 weeks by Giemsa staining based analysis (reference value: 2.40 +/- 0.03); type: functional
Leishmania infantum [31] = assay: Antileishmanial activity against Leishmania infantum infected in BALB/c mouse model of visceral leishmaniasis assessed as footpad lesion development at 50 mg/kg/day, IM administered for 21 days and measured after 2 weeks by Giemsa staining based analysis (reference value: 29.73 +/- 0.63); type: functional
Leishmania infantum [32] = assay: Antileishmanial activity against Leishmania infantum infected in BALB/c mouse model of cutaneous leishmaniasis assessed as footpad lesion development at 50 mg/kg/day, ID administered for 21 days and measured after 18 weeks by Giemsa staining based analysis (reference value: 4.42 +/- 0.03); type: functional

**Q.** What does the source list for Meglumine antimoniate?
**A.** Activity (Leishmania infantum [1]): 3.09; Activity (Leishmania infantum [2]): Active; Activity (Leishmania infantum [3]): 4.2; Activity (Leishmania infantum [4]): 25.3; Activity (Leishmania infantum [5]): 2.16; Activity (Leishmania infantum [6]): 27.7; Activity (Leishmania infantum [7]): 28.5; Activity (Leishmania infantum [8]): 4.69; Activity (Leishmania infantum [9]): Active; Activity (Leishmania infantum [10]): 3.84; Activity (Leishmania infantum [11]): 27.4; Activity (Leishmania infantum [12]): 4.69; Activity (Leishmania infantum [13]): 4.9; Activity (Leishmania infantum [14]): 1.87; Activity (Leishmania infantum [15]): 30.3; Activity (Leishmania infantum [16]): 3.4; Activity (Leishmania infantum [17]): 4.53; Activity (Leishmania infantum [18]): 3.49; Activity (Leishmania infantum [19]): 1.7; Activity (Leishmania infantum [20]): Active; Activity (Leishmania infantum [21]): 3.61; Activity (Leishmania infantum [22]): 26.3; Activity (Leishmania infantum [23]): 28.7; Activity (Leishmania infantum [24]): 29.3; Activity (Leishmania infantum [25]): 26.7; Activity (Leishmania infantum [26]): 1.56; Activity (Leishmania infantum [27]): Active; Activity (Leishmania infantum [28]): Active; Activity (Leishmania infantum [29]): 30.8; Activity (Leishmania infantum [30]): 2.39; Activity (Leishmania infantum [31]): 29.4; Activity (Leishmania infantum [32]): 4.42
